Values of other authors in publication PMC12305721 (International Journal of Pharmaceutics: X, 2025).

Design: method as in Song et al., 2016
Details: reduced from −43.19 °C; ref Song et al., 2016

Tg of PSAs after incorporation of Azone: −52.92 °C
SMILES: CCCCCCCCCCCCN1CCCCCC1=O [Azone]
